Experiments:
Experiment in all cases: relative viability (nuclei count vs DMSO), 5 days (fraction); higher = more cells survive
AZ505 + Luminespib = compound: C1CCC(CC1)N(CCNCCC2=C3C(=C(C=C2)O)NC(=O)CO3)C(=O)CCNCCC4=CC(=C(C=C4)Cl)Cl [AZ505] + CCNC(=O)c1noc(-c2cc(C(C)C)c(O)cc2O)c1-c1ccc(CN2CCOCC2)cc1 [Luminespib] (partner 0.01 µM)
Method in brief: (§1)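 Nuclei were stained with Hoechst during a one-step fixation (final 0.05% Triton X-100, 1% formaldehyde, 1 ug/ml Hoechst) carried out 5 days after dosing, then counted on 4× images. The cells, lung cancer lines in 1536-well plates, had been dosed by pin tool the day after seeding with one drug alone or a fixed anchor-drug dose plus five library-drug doses (not always all listed) in √10 steps. Relative viability is the nuclei count in treated wells divided by that in vehicle wells, and each value is the median of duplicate plates.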

AZ505 + Olaparib = compound: C1CCC(CC1)N(CCNCCC2=C3C(=C(C=C2)O)NC(=O)CO3)C(=O)CCNCCC4=CC(=C(C=C4)Cl)Cl [AZ505] + O=C(c1cc(Cc2n[nH]c(=O)c3ccccc23)ccc1F)N1CCN(C(=O)C2CC2)CC1 [Olaparib] (partner 8 µM)
Method in brief: as §1

Dactolisib + Pictilisib = compound: Cn1c(=O)n(-c2ccc(C(C)(C)C#N)cc2)c2c3cc(-c4cnc5ccccc5c4)ccc3ncc21 [Dactolisib] + CS(=O)(=O)N1CCN(Cc2cc3nc(-c4cccc5[nH]ncc45)nc(N4CCOCC4)c3s2)CC1 [Pictilisib] (partner 1 µM)
Method in brief: as §1

Dactolisib + AZD7762 = compound: Cn1c(=O)n(-c2ccc(C(C)(C)C#N)cc2)c2c3cc(-c4cnc5ccccc5c4)ccc3ncc21 [Dactolisib] + NC(=O)Nc1cc(-c2cccc(F)c2)sc1C(=O)N[C@H]1CCCNC1 [AZD7762] (partner 0.2 µM)
Method in brief: as §1

## H3255
AZ505 + Luminespib; first compound 0.08 µM
  relative viability: 0.887
AZ505 + Luminespib; first compound 0.253 µM
  relative viability: 0.811
AZ505 + Luminespib; first compound 0.8 µM
  relative viability: 0.939
AZ505 + Luminespib; first compound 2.53 µM
  relative viability: 0.876
AZ505 + Luminespib; first compound 8 µM
  relative viability: 0.963
AZ505 + Olaparib; first compound 0.08 µM
  relative viability: 0.55
AZ505 + Olaparib; first compound 0.253 µM
  relative viability: 0.564
AZ505 + Olaparib; first compound 0.8 µM
  relative viability: 0.569
AZ505 + Olaparib; first compound 2.53 µM
  relative viability: 0.601
AZ505 + Olaparib; first compound 8 µM
  relative viability: 0.597
Dactolisib + Pictilisib; first compound 0.002 µM
  relative viability: 0.513
Dactolisib + Pictilisib; first compound 0.006325 µM
  relative viability: 0.44
Dactolisib + Pictilisib; first compound 0.02 µM
  relative viability: 0.473
Dactolisib + Pictilisib; first compound 0.06325 µM
  relative viability: 0.35
Dactolisib + Pictilisib; first compound 0.2 µM
  relative viability: 0.339
Dactolisib + AZD7762; first compound 0.002 µM
  relative viability: 0.921
Dactolisib + AZD7762; first compound 0.006325 µM
  relative viability: 0.963
Dactolisib + AZD7762; first compound 0.02 µM
  relative viability: 0.803
Dactolisib + AZD7762; first compound 0.06325 µM
  relative viability: 0.828
Dactolisib + AZD7762; first compound 0.2 µM
  relative viability: 0.551

## NCI-H1437
AZ505 + Luminespib; first compound 0.08 µM
  relative viability: 1.04
AZ505 + Luminespib; first compound 0.253 µM
  relative viability: 1.15
AZ505 + Luminespib; first compound 0.8 µM
  relative viability: 1.17
AZ505 + Luminespib; first compound 2.53 µM
  relative viability: 1.09
AZ505 + Luminespib; first compound 8 µM
  relative viability: 1.07
AZ505 + Olaparib; first compound 0.08 µM
  relative viability: 0.623
AZ505 + Olaparib; first compound 0.253 µM
  relative viability: 0.623
AZ505 + Olaparib; first compound 0.8 µM
  relative viability: 0.632
AZ505 + Olaparib; first compound 2.53 µM
  relative viability: 0.595
AZ505 + Olaparib; first compound 8 µM
  relative viability: 0.637
Dactolisib + Pictilisib; first compound 0.002 µM
  relative viability: 0.452
Dactolisib + Pictilisib; first compound 0.006325 µM
  relative viability: 0.421
Dactolisib + Pictilisib; first compound 0.02 µM
  relative viability: 0.371
Dactolisib + Pictilisib; first compound 0.06325 µM
  relative viability: 0.268
Dactolisib + Pictilisib; first compound 0.2 µM
  relative viability: 0.165
Dactolisib + AZD7762; first compound 0.002 µM
  relative viability: 1.07
Dactolisib + AZD7762; first compound 0.006325 µM
  relative viability: 1.18
Dactolisib + AZD7762; first compound 0.02 µM
  relative viability: 1.12
Dactolisib + AZD7762; first compound 0.06325 µM
  relative viability: 1.05
Dactolisib + AZD7762; first compound 0.2 µM
  relative viability: 1.1

## LU99A
AZ505 + Luminespib; first compound 0.253 µM
  relative viability: 0.268
AZ505 + Luminespib; first compound 0.8 µM
  relative viability: 0.212
AZ505 + Luminespib; first compound 2.53 µM
  relative viability: 0.175
AZ505 + Luminespib; first compound 8 µM
  relative viability: 0.286
AZ505 + Olaparib; first compound 0.08 µM
  relative viability: 0.279
AZ505 + Olaparib; first compound 0.253 µM
  relative viability: 0.298
AZ505 + Olaparib; first compound 0.8 µM
  relative viability: 0.289
AZ505 + Olaparib; first compound 8 µM
  relative viability: 0.265
Dactolisib + Pictilisib; first compound 0.002 µM
  relative viability: 0.299
Dactolisib + Pictilisib; first compound 0.006325 µM
  relative viability: 0.285
Dactolisib + Pictilisib; first compound 0.02 µM
  relative viability: 0.269
Dactolisib + Pictilisib; first compound 0.06325 µM
  relative viability: 0.222
Dactolisib + Pictilisib; first compound 0.2 µM
  relative viability: 0.179
Dactolisib + AZD7762; first compound 0.002 µM
  relative viability: 0.305
Dactolisib + AZD7762; first compound 0.006325 µM
  relative viability: 0.247
Dactolisib + AZD7762; first compound 0.02 µM
  relative viability: 0.263
Dactolisib + AZD7762; first compound 0.06325 µM
  relative viability: 0.166
Dactolisib + AZD7762; first compound 0.2 µM
  relative viability: 0.127

## HCC-827
AZ505 + Luminespib; first compound 0.08 µM
  relative viability: 0.731
AZ505 + Luminespib; first compound 0.253 µM
  relative viability: 1.03
AZ505 + Luminespib; first compound 0.8 µM
  relative viability: 0.683
AZ505 + Luminespib; first compound 2.53 µM
  relative viability: 0.532
AZ505 + Luminespib; first compound 8 µM
  relative viability: 1.11
AZ505 + Olaparib; first compound 0.08 µM
  relative viability: 0.629
AZ505 + Olaparib; first compound 0.253 µM
  relative viability: 0.662
AZ505 + Olaparib; first compound 0.8 µM
  relative viability: 0.628
AZ505 + Olaparib; first compound 2.53 µM
  relative viability: 0.646
AZ505 + Olaparib; first compound 8 µM
  relative viability: 0.711
Dactolisib + Pictilisib; first compound 0.002 µM
  relative viability: 1.28
Dactolisib + Pictilisib; first compound 0.006325 µM
  relative viability: 0.997
Dactolisib + Pictilisib; first compound 0.02 µM
  relative viability: 0.932
Dactolisib + Pictilisib; first compound 0.06325 µM
  relative viability: 0.654
Dactolisib + Pictilisib; first compound 0.2 µM
  relative viability: 0.63
Dactolisib + AZD7762; first compound 0.002 µM
  relative viability: 0.226
Dactolisib + AZD7762; first compound 0.006325 µM
  relative viability: 0.279
Dactolisib + AZD7762; first compound 0.02 µM
  relative viability: 0.176
Dactolisib + AZD7762; first compound 0.06325 µM
  relative viability: 0.184
Dactolisib + AZD7762; first compound 0.2 µM
  relative viability: 0.231

## LK-2
AZ505 + Luminespib; first compound 0.08 µM
  relative viability: 0.189
AZ505 + Luminespib; first compound 0.253 µM
  relative viability: 0.175
AZ505 + Luminespib; first compound 0.8 µM
  relative viability: 0.172
AZ505 + Luminespib; first compound 2.53 µM
  relative viability: 0.225
AZ505 + Luminespib; first compound 8 µM
  relative viability: 0.176
AZ505 + Olaparib; first compound 0.08 µM
  relative viability: 0.597
AZ505 + Olaparib; first compound 0.253 µM
  relative viability: 0.583
AZ505 + Olaparib; first compound 0.8 µM
  relative viability: 0.87
AZ505 + Olaparib; first compound 2.53 µM
  relative viability: 0.822
AZ505 + Olaparib; first compound 8 µM
  relative viability: 0.784
Dactolisib + Pictilisib; first compound 0.002 µM
  relative viability: 0.479
Dactolisib + Pictilisib; first compound 0.006325 µM
  relative viability: 0.547
Dactolisib + Pictilisib; first compound 0.02 µM
  relative viability: 0.499
Dactolisib + Pictilisib; first compound 0.06325 µM
  relative viability: 0.33
Dactolisib + Pictilisib; first compound 0.2 µM
  relative viability: 0.251
Dactolisib + AZD7762; first compound 0.002 µM
  relative viability: 0.273
Dactolisib + AZD7762; first compound 0.006325 µM
  relative viability: 0.447
Dactolisib + AZD7762; first compound 0.02 µM
  relative viability: 0.305
Dactolisib + AZD7762; first compound 0.06325 µM
  relative viability: 0.12
Dactolisib + AZD7762; first compound 0.2 µM
  relative viability: 0.0726

## BEN
AZ505 + Luminespib; first compound 0.08 µM
  relative viability: 0.367
AZ505 + Luminespib; first compound 0.253 µM
  relative viability: 0.564
AZ505 + Luminespib; first compound 0.8 µM
  relative viability: 0.352
AZ505 + Luminespib; first compound 2.53 µM
  relative viability: 0.336
AZ505 + Luminespib; first compound 8 µM
  relative viability: 0.449
AZ505 + Olaparib; first compound 0.08 µM
  relative viability: 0.998
AZ505 + Olaparib; first compound 0.253 µM
  relative viability: 1.04
AZ505 + Olaparib; first compound 0.8 µM
  relative viability: 1.04
AZ505 + Olaparib; first compound 2.53 µM
  relative viability: 1.04
AZ505 + Olaparib; first compound 8 µM
  relative viability: 1.21
Dactolisib + Pictilisib; first compound 0.002 µM
  relative viability: 0.505
Dactolisib + Pictilisib; first compound 0.006325 µM
  relative viability: 0.529
Dactolisib + Pictilisib; first compound 0.02 µM
  relative viability: 0.463
Dactolisib + Pictilisib; first compound 0.06325 µM
  relative viability: 0.4
Dactolisib + Pictilisib; first compound 0.2 µM
  relative viability: 0.282
Dactolisib + AZD7762; first compound 0.002 µM
  relative viability: 0.781
Dactolisib + AZD7762; first compound 0.006325 µM
  relative viability: 0.645
Dactolisib + AZD7762; first compound 0.02 µM
  relative viability: 0.547
Dactolisib + AZD7762; first compound 0.06325 µM
  relative viability: 0.588
Dactolisib + AZD7762; first compound 0.2 µM
  relative viability: 0.41

## NCI-H23
AZ505 + Luminespib; first compound 0.08 µM
  relative viability: 0.214
AZ505 + Luminespib; first compound 0.8 µM
  relative viability: 0.208
AZ505 + Luminespib; first compound 2.53 µM
  relative viability: 0.221
AZ505 + Luminespib; first compound 8 µM
  relative viability: 0.196
AZ505 + Olaparib; first compound 0.08 µM
  relative viability: 0.256
AZ505 + Olaparib; first compound 0.253 µM
  relative viability: 0.362
AZ505 + Olaparib; first compound 0.8 µM
  relative viability: 0.305
AZ505 + Olaparib; first compound 2.53 µM
  relative viability: 0.364
AZ505 + Olaparib; first compound 8 µM
  relative viability: 0.337
Dactolisib + Pictilisib; first compound 0.002 µM
  relative viability: 0.503
Dactolisib + Pictilisib; first compound 0.006325 µM
  relative viability: 0.529
Dactolisib + Pictilisib; first compound 0.02 µM
  relative viability: 0.37
Dactolisib + Pictilisib; first compound 0.06325 µM
  relative viability: 0.252
Dactolisib + Pictilisib; first compound 0.2 µM
  relative viability: 0.23
Dactolisib + AZD7762; first compound 0.002 µM
  relative viability: 0.241
Dactolisib + AZD7762; first compound 0.006325 µM
  relative viability: 0.232
Dactolisib + AZD7762; first compound 0.02 µM
  relative viability: 0.309
Dactolisib + AZD7762; first compound 0.06325 µM
  relative viability: 0.19
Dactolisib + AZD7762; first compound 0.2 µM
  relative viability: 0.101

## NCI-H1395
AZ505 + Luminespib; first compound 0.08 µM
  relative viability: 0.618
AZ505 + Luminespib; first compound 0.253 µM
  relative viability: 0.752
AZ505 + Luminespib; first compound 0.8 µM
  relative viability: 0.693
AZ505 + Luminespib; first compound 2.53 µM
  relative viability: 0.696
AZ505 + Luminespib; first compound 8 µM
  relative viability: 0.66
AZ505 + Olaparib; first compound 0.08 µM
  relative viability: 0.427
AZ505 + Olaparib; first compound 0.8 µM
  relative viability: 0.456
AZ505 + Olaparib; first compound 2.53 µM
  relative viability: 0.489
AZ505 + Olaparib; first compound 8 µM
  relative viability: 0.392
Dactolisib + Pictilisib; first compound 0.002 µM
  relative viability: 0.64
Dactolisib + Pictilisib; first compound 0.006325 µM
  relative viability: 0.611
Dactolisib + Pictilisib; first compound 0.02 µM
  relative viability: 0.569
Dactolisib + Pictilisib; first compound 0.06325 µM
  relative viability: 0.525
Dactolisib + Pictilisib; first compound 0.2 µM
  relative viability: 0.446
Dactolisib + AZD7762; first compound 0.002 µM
  relative viability: 0.375
Dactolisib + AZD7762; first compound 0.006325 µM
  relative viability: 0.373
Dactolisib + AZD7762; first compound 0.02 µM
  relative viability: 0.391
Dactolisib + AZD7762; first compound 0.06325 µM
  relative viability: 0.373
Dactolisib + AZD7762; first compound 0.2 µM
  relative viability: 0.355

Source: the supplement of paper PMC10307832
